Measured values as given in article PMC4503722, “Novel Phenotypic Outcomes Identified for a Public Collection of Approved Drugs from a Publicly Accessible Panel of Assays” (PLoS ONE, 2015).
pEC50, pIC50: −log10 of the molar value. Where two headings read alike, the source gives them in different places.

Assays:
HCT116 = test: cells; format: cell-based
SNU-C1 = test: cells; format: cell-based
[1] = test system: HCT116 cells treated with a GSK3β inhibitor; test: cells; format: cell-based
DLD-1 = test: cells; format: cell-based
HT-29 = test: cells; format: cell-based
RKO = test: cells; format: cell-based
[2] = test system: nuclear β-catenin in C2C12 cells; test: cells; format: cell-based
hp70S6K1 (RPS6KB1) = target: T1, hp70S6K1 (RPS6KB1) (Homo sapiens, UniProt P23443); test: Cerep LANCE kinase assay hp70S6K1 (S1 assay 31); format: biochemical; conditions: read-out: p70S6K1
T1 construct: purchased Cerep (LANCE kinase assay platform, contract assay)

Colo320 = test: cells; format: cell-based
HeLa cells = test: cells; format: cell-based; conditions: HeLa, read-out: CellCycle G2/M
hKDR = target: T2, hKDR (Homo sapiens, UniProt P35968); test: Cerep LANCE kinase assay hKDR (S1 assay 32); format: biochemical; conditions: read-out: KDR
T2 construct: purchased Cerep (LANCE kinase assay platform, contract assay)

hJAK2 = target: T3, hJAK2 (Homo sapiens, UniProt O60674); test: Cerep LANCE kinase assay hJAK2 (S1 assay 33); format: biochemical; conditions: read-out: JAK2
T3 construct: purchased Cerep (LANCE kinase assay platform, contract assay)

SW480 = test: cells; format: cell-based
[3] = test system: endothelial tube formation in co-cultures of ECFCs and ADSCs treated with VEGF; test: cells; format: cell-based, human
NCI-H716 cells = test: cells; format: cell-based, Human
hFLT3 = target: T4, hFLT3 (Homo sapiens, UniProt P36888); test: Cerep LANCE kinase assay hFLT3 (S1 assay 35); format: biochemical; conditions: read-out: FLT3
T4 construct: purchased Cerep (LANCE kinase assay platform, contract assay)

INS-1E cells = test: cells; format: cell-based, rat
hGSK3b = target: T5, hGSK3b (Homo sapiens, UniProt P49841); test: Cerep LANCE kinase assay hGSK3b (S1 assay 34); format: biochemical; conditions: read-out: GSK3b
T5 construct: purchased Cerep (LANCE kinase assay platform, contract assay)

[4] = Homo sapiens, HCT-116, read-out: Basal_Viability ATP HCT116
[5] = Homo sapiens, HCT-116, read-out: GSK3b inh pretreated_Viability ATP HCT116
[6] = Homo sapiens, DLD-1, read-out: Basal_Viability ATP DLD-1
[7] = Homo sapiens, HT-29, read-out: Basal_Viability ATP HT-29
[8] = Homo sapiens, RKO, read-out: Basal_Viability ATP RKO
[9] = Mus musculus, C2C12, read-out: Wnt Pathway
[10] = Homo sapiens, SW480, read-out: Basal_Viability ATP SW480
[11] = Homo sapiens, read-out: Anti-Angiogenesis
[12] = Homo sapiens, NCI-H716, read-out: GLP 1 Secretion
[13] = Rattus norvegicus, INS-1E, read-out: Insulin Secretion

T5 sequence (P49841 whole entry): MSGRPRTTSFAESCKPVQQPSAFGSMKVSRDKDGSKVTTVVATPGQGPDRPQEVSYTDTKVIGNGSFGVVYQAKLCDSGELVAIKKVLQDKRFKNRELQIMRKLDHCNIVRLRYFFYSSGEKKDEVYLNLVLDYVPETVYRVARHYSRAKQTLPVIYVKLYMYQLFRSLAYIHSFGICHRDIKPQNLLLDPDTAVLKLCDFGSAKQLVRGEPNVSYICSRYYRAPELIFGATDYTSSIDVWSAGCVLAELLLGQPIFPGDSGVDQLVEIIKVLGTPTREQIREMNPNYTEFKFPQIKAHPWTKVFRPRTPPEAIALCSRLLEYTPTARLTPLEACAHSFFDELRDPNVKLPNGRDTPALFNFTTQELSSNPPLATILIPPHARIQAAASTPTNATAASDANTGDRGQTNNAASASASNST
T1 sequence (P23443 whole entry): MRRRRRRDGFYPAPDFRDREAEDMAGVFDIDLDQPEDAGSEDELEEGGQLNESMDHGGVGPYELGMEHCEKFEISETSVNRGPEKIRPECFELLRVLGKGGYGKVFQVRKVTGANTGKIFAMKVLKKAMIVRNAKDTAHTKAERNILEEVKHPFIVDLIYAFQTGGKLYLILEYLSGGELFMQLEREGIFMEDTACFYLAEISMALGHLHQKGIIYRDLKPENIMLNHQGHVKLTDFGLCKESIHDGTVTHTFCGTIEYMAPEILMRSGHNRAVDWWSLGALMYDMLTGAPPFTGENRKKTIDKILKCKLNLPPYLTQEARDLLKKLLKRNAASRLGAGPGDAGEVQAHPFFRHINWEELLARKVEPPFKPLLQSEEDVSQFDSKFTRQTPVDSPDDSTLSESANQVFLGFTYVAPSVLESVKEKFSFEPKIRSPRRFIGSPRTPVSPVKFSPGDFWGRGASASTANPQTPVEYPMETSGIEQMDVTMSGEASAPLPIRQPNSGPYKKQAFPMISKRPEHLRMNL
T4 sequence (P36888 27-993): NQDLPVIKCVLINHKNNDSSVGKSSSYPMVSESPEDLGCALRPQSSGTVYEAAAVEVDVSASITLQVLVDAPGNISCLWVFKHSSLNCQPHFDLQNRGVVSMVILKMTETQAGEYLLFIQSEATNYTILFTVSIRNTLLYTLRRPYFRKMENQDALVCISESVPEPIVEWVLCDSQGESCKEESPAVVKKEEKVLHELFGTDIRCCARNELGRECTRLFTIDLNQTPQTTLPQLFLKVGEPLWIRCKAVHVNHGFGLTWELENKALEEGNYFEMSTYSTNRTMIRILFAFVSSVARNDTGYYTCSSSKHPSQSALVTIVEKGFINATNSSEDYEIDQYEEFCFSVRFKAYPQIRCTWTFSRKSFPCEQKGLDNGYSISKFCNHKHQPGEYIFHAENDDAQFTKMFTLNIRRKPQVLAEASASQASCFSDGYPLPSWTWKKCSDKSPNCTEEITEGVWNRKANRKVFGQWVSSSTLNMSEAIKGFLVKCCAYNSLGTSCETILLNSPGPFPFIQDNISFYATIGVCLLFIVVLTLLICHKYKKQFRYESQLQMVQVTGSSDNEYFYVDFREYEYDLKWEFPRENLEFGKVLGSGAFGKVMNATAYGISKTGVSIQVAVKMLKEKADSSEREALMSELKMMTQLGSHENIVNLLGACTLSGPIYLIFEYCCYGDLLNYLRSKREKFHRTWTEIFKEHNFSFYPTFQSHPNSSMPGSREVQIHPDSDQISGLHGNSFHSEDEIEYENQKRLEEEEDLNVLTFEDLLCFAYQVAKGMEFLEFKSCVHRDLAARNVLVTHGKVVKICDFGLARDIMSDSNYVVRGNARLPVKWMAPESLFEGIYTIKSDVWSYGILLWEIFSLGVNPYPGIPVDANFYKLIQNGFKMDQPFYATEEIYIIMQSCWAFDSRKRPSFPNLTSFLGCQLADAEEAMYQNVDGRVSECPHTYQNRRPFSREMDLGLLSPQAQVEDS
T2 sequence (P35968 20-1356): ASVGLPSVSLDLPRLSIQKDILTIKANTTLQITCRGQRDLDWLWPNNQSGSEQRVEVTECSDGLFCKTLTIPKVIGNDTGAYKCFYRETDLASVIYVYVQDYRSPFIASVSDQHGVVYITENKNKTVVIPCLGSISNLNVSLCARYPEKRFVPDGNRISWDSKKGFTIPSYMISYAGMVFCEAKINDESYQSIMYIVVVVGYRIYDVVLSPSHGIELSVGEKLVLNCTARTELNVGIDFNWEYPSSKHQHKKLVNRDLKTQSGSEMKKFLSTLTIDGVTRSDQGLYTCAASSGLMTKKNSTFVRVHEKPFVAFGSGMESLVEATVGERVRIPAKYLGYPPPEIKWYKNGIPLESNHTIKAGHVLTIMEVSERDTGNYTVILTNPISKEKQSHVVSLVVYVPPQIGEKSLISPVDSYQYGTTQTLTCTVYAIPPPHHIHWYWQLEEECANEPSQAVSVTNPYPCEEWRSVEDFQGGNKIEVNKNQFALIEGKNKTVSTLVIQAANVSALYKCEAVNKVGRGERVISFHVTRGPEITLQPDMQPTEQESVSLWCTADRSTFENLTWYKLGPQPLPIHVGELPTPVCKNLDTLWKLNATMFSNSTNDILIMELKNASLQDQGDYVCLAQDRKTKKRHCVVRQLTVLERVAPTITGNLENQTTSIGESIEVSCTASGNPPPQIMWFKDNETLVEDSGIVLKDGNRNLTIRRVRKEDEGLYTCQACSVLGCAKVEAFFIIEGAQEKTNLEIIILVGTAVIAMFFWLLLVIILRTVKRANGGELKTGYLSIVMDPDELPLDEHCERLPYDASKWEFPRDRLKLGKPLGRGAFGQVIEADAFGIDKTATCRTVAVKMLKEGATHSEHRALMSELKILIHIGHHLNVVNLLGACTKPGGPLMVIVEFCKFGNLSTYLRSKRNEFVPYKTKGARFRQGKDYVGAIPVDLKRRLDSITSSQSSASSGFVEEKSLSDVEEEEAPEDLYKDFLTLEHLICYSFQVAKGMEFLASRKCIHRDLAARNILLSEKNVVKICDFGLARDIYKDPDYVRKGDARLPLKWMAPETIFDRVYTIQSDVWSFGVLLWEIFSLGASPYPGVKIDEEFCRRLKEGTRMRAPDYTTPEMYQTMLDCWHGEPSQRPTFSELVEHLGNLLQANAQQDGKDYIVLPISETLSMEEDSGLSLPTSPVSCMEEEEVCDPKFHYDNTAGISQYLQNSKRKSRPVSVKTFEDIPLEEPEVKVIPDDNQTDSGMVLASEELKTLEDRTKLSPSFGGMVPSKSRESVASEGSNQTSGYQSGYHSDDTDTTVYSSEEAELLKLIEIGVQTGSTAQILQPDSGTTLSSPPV
T3 sequence (O60674 whole entry): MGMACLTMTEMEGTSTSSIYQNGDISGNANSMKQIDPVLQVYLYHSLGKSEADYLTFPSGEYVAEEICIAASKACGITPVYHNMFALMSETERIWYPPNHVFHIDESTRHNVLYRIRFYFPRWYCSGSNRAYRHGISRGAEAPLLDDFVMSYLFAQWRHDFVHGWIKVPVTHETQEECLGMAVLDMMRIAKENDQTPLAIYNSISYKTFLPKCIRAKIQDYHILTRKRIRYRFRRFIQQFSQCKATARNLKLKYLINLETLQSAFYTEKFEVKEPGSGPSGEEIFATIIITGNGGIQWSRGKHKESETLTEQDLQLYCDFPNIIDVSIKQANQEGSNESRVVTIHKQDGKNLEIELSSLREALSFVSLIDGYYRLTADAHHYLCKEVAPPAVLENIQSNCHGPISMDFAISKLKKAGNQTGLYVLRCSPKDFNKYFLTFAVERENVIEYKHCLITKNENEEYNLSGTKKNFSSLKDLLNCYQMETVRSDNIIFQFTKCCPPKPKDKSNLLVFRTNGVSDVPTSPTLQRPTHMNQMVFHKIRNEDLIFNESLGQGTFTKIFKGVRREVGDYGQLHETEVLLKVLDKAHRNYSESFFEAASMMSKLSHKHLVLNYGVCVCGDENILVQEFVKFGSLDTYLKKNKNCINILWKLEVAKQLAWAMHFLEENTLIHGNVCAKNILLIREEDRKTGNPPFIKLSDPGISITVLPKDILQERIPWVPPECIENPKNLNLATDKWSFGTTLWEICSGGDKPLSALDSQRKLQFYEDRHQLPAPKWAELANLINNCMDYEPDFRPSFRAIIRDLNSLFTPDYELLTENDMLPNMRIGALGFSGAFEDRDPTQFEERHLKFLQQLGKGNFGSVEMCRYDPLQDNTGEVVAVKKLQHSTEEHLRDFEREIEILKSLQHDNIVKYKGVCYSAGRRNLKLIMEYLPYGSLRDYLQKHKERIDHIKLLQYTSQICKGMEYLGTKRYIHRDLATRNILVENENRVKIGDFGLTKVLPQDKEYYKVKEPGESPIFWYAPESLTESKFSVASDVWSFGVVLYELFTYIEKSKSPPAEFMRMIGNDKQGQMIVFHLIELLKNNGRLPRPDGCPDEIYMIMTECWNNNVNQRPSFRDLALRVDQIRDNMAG

SMILES: O=C(CCl)c1ccc(Cl)cc1Cl [2,2',4'-Trichloroacetophenone]
- pIC50 (HCT116; basal, read-out: Basal_Viability ATP HCT116): 5.20
- pIC50 (SNU-C1; basal, read-out: Basal_Viability ATP SNU-C1): 5.53
- pIC50 ([1]; GSK3b inhibitor pretreated, read-out: GSK3b inh pretreated_Viability ATP HCT116): 5.96
- pIC50 (DLD-1; basal, read-out: Basal_Viability ATP DLD-1): 5.69
- pIC50 (HT-29; basal; read-out: Basal_Viability ATP HT-29): 5.07
- pIC50 (RKO; basal; read-out: Basal_Viability ATP RKO): 5.37
- pEC50 ([2]; IC50 / EC50; C2C12 beta-catenin translocation; read-out: Wnt Pathway): 6.43
- pIC50 (hp70S6K1 (RPS6KB1)): < 4.70
- pIC50 (Colo320; basal, read-out: Basal_Viability ATP Colo 320): 6.28
- pEC50 (HeLa cells; IC50 / EC50): < 5.00
- pIC50 (hKDR): < 4.70
- pIC50 (hJAK2): < 4.70
- pIC50 (SW480; basal, read-out: Basal_Viability ATP SW480): 5.90
- pIC50 ([3]; IC50 / EC50; endothelial tube area, ADSC/ECFC co-culture; read-out: Anti-Angiogenesis): 5.60
- pEC50 (NCI-H716 cells; IC50 / EC50; NCI-H716; read-out: GLP 1 Secretion): < 5.00
- pIC50 (hFLT3): < 4.70
- pEC50 (INS-1E cells; IC50 / EC50; INS-1E; read-out: Insulin Secretion): < 5.00
- pIC50 (hGSK3b): < 4.70

SMILES: CC(C)C[C@H](NC(=O)[C@H](CCc1ccccc1)NC(=O)CN1CCOCC1)C(=O)N[C@@H](Cc1ccccc1)C(=O)N[C@@H](CC(C)C)C(=O)[C@@]1(C)CO1 [carfilzomib, reference compound]
- pIC50 (HCT116; Homo sapiens, HCT-116, 72 h, read-out: HCT-116 viab. IC50, Table 2, basal, 72 h, Cell TiterGlo, non-adherent, 20 coded): 8.22
- pIC50 (HCT116; Homo sapiens, HCT-116, basal, read-out: Basal_Viability ATP HCT116): 8.25
- pIC50 (SNU-C1; Homo sapiens, SNU-C1, 72 h, Table 2, 72 h, Cell TiterGlo, non-adherent, 20 coded, read-out: SNU-C1 viab. IC50): 9.00
- pIC50 (SNU-C1; Homo sapiens, SNU-C1, basal, read-out: Basal_Viability ATP SNU-C1): 8.83
- pIC50 ([1]; Homo sapiens, HCT-116, read-out: HCT-116 (GSK3β) viab. IC50, Table 2, GSK3β inhibitor LY2090314 20 nM, 72 h, Cell TiterGlo, 20 coded): 8.70
- pIC50 ([1]; Homo sapiens, HCT-116, GSK3b inhibitor pretreated, read-out: GSK3b inh pretreated_Viability ATP HCT116): 8.76
- pIC50 (DLD-1; Homo sapiens, DLD-1, 72 h, Table 2, 72 h, Cell TiterGlo, non-adherent, 20 coded, read-out: DLD-1 viab. IC50): 8.15
- pIC50 (DLD-1; Homo sapiens, DLD-1, basal, read-out: Basal_Viability ATP DLD-1): 8.16
- pIC50 (HT-29; Homo sapiens, HT-29; Table 2; 72 h, Cell TiterGlo, non-adherent; 20 coded; read-out: HT-29 viab. IC50): 8.52
- pIC50 (HT-29; Homo sapiens, HT-29; read-out: Basal_Viability ATP HT-29): 8.50
- pIC50 (RKO; Homo sapiens, RKO; Table 2; 72 h, Cell TiterGlo, non-adherent; 20 coded; read-out: RKO viab. IC50): 8.40
- pIC50 (RKO; Homo sapiens, RKO; read-out: Basal_Viability ATP RKO): 8.40
- pEC50 ([2]; Mus musculus, C2C12, IC50 / EC50; C2C12 beta-catenin translocation; read-out: Wnt Pathway): 7.82
- pEC50 ([2]; Mus musculus, C2C12; read-out: Wnt pot. EC50): 7.82
- pIC50 (hp70S6K1 (RPS6KB1)): < 4.70
- pEC50 (HeLa cells; Homo sapiens, IC50 / EC50): < 5.00
- pIC50 (hKDR): < 4.70
- pIC50 (hJAK2): < 4.70
- pIC50 ([3]; Homo sapiens, IC50 / EC50; endothelial tube area, ADSC/ECFC co-culture; read-out: Anti-Angiogenesis): 7.69
- pIC50 ([3]; Homo sapiens; read-out: Anti-Angio IC50): 7.70
- pEC50 (NCI-H716 cells; Homo sapiens, NCI-H716; read-out: GLP1 sec. EC50): < 5.00
- pIC50 (hFLT3): < 4.70
- pEC50 (INS-1E cells; Rattus norvegicus, INS-1E; read-out: Ins. sec. EC50): < 5.00
- pIC50 (hGSK3b): < 4.70

SMILES: COC(=O)Nc1nc2ccc(C(=O)C3CC3)cc2[nH]1 [Ciclobendazole]
- pIC50 (HCT116; Homo sapiens, HCT-116, basal, HCT116, read-out: Basal_Viability ATP HCT116): 6.76
- pIC50 (SNU-C1; Homo sapiens, SNU-C1, basal, SNU-C1, read-out: Basal_Viability ATP SNU-C1): < 4.70
- pIC50 (DLD-1; Homo sapiens, DLD-1, basal, DLD-1, read-out: Basal_Viability ATP DLD-1): 5.26
- pIC50 (HT-29; Homo sapiens; basal; HT-29; read-out: Basal_Viability ATP HT-29): 5.77
- pIC50 (RKO; Homo sapiens; basal; RKO; read-out: Basal_Viability ATP RKO): 6.79
- pEC50 ([2]; Mus musculus, C2C12; read-out: Wnt Pathway): 6.46
- pIC50 (hp70S6K1 (RPS6KB1); kinase assay): < 4.70
- pIC50 (Colo320; Homo sapiens, basal, Colo 320, read-out: Basal_Viability ATP Colo 320): 6.81
- pEC50 (HeLa cells; Homo sapiens, S2 Table, 20 = no response at highest concentration): 6.38
- pIC50 (hKDR; kinase assay): 4.82
- pIC50 (hJAK2; kinase assay): < 4.70
- pIC50 (SW480; Homo sapiens, SW480, basal, SW480, read-out: Basal_Viability ATP SW480): < 4.70
- pIC50 ([3]; Homo sapiens; read-out: Anti-Angiogenesis): 5.92
- pEC50 (NCI-H716 cells; Homo sapiens, NCI-H716; read-out: GLP 1 Secretion): < 5.00
- pIC50 (hFLT3; kinase assay): 5.21
- pEC50 (INS-1E cells; Rattus norvegicus, INS-1E; read-out: Insulin Secretion): < 5.00
- pIC50 (hGSK3b; kinase assay): 4.83

SMILES: COC(=O)Nc1nc2ccc([S+]([O-])c3ccccc3)cc2[nH]1 (centres unmarked) [Oxfendazole]
- pIC50 (HCT116; [4]): 9.00
- pIC50 [1, 5]: 9.00
- pIC50 (DLD-1; [6]): < 4.70
- pIC50 (HT-29; [7]): < 4.70
- pIC50 (RKO; [8]): 9.00
- pEC50 [2, 9]: 6.33
- pIC50 (hp70S6K1 (RPS6KB1); kinase assay): < 4.70
- pEC50 (HeLa cells; Homo sapiens): 6.48
- pIC50 (hKDR; kinase assay): < 4.70
- pIC50 (hJAK2; kinase assay): < 4.70
- pIC50 (SW480; [10]): < 4.70
- pIC50 [3, 11]: 6.54
- pEC50 (NCI-H716 cells; [12]): < 5.00
- pIC50 (hFLT3; kinase assay): < 4.70
- pEC50 (INS-1E cells; [13]): < 5.00
- pIC50 (hGSK3b; kinase assay): < 4.70

SMILES: CC(C)(C)[C@H]1CC[C@H](CC2=C(O)C(=O)c3ccccc3C2=O)CC1 [Buparvaquone]
- pIC50 (HCT116; [4]): 6.64
- pIC50 [1, 5]: 7.18
- pIC50 (DLD-1; [6]): 6.66
- pIC50 (HT-29; [7]): 5.47
- pIC50 (RKO; [8]): 6.88
- pEC50 [2, 9]: < 5.00
- pIC50 (hp70S6K1 (RPS6KB1)): < 4.70
- pIC50 (Colo320; Homo sapiens, COLO 320, read-out: Basal_Viability ATP Colo 320): 6.59
- pEC50 (HeLa cells; Homo sapiens): < 5.00
- pIC50 (hKDR): < 4.70
- pIC50 (hJAK2): < 4.70
- pIC50 (SW480; [10]): 6.69
- pIC50 [3, 11]: 5.71
- pEC50 (NCI-H716 cells; [12]): < 5.00
- pIC50 (hFLT3): < 4.70
- pEC50 (INS-1E cells; [13]): < 5.00
- pIC50 (hGSK3b): < 4.70
